Reference: PubChem BioAssay (NCI)
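GI50 is the concentration that inhibits growth by half. TGI marks complete inhibition of growth.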

Assays:
Assay in all cases: NCI anticancer screen, dose series, 384-well format
[1] = tested on: SK-MEL-28 melanoma
[2] = tested on: HT29 colon
[3] = tested on: MDA-MB-231 breast
[4] = tested on: NCI-H23 lung
[5] = tested on: ACHN renal
[6] = tested on: SF-295 CNS
[7] = tested on: KM12 colon
[8] = tested on: 786-0 renal
[9] = tested on: COLO 205 colon
[10] = tested on: MCF7 breast
[11] = tested on: CAKI-1 renal
[12] = tested on: OVCAR-8 ovarian
[13] = tested on: LOX IMVI melanoma
[14] = tested on: MOLT-4 leukemia
[15] = tested on: NCI-H322M lung
[16] = tested on: OVCAR-5 ovarian
[17] = tested on: HOP-62 NSCLC
[18] = tested on: SW-620 colon
[19] = tested on: HS 578T breast
[20] = tested on: M14 melanoma
[21] = tested on: SNB-75 CNS
[22] = tested on: HCC-2998 colon
[23] = tested on: MALME-3M melanoma
[24] = tested on: TK-10 renal
[25] = tested on: SF-268 CNS
[26] = tested on: UO-31 renal
[27] = tested on: HOP-92 NSCLC
[28] = tested on: RXF 393 renal
[29] = tested on: IGROV1 ovarian
[30] = tested on: NCI/ADR-RES ovarian
[31] = tested on: OVCAR-4 ovarian
[32] = tested on: UACC-62 melanoma

Cc1ccc(C(=O)Nc2ccc(Oc3cc4cnn(C)c4cc3-c3cn[nH]c3)c(F)c2)c(=O)n1-c1ccc(F)cc1
GI50 [1]: 7.28 µM
TGI [1]: > 100 µM
GI50 [2]: 3.03 µM
TGI [2]: > 100 µM
GI50 [3]: > 100 µM
TGI [3]: > 100 µM
GI50 [4]: 10.4 µM
TGI [4]: > 100 µM
GI50 [5]: 6.44 µM
TGI [5]: > 100 µM
GI50 [6]: 2.37 µM
TGI [6]: > 100 µM
GI50 [7]: 0.0165 µM
TGI [7]: > 100 µM
GI50 [8]: > 100 µM
TGI [8]: > 100 µM
GI50 [9]: 4.91 µM
TGI [9]: > 100 µM
GI50 [10]: 5.56 µM
TGI [10]: > 100 µM
GI50 [11]: 5.86 µM
TGI [11]: > 100 µM
GI50 [12]: > 100 µM
TGI [12]: > 100 µM
GI50 [13]: 4.05 µM
TGI [13]: > 100 µM
GI50 [14]: 1.08 µM
TGI [14]: 19.8 µM
GI50 [15]: > 100 µM
TGI [15]: > 100 µM
GI50 [16]: > 100 µM
TGI [16]: > 100 µM
GI50 [17]: 3.81 µM
TGI [17]: > 100 µM
GI50 [18]: > 100 µM
TGI [18]: > 100 µM
GI50 [19]: 10.6 µM
TGI [19]: > 100 µM
GI50 [20]: 2.56 µM
TGI [20]: > 100 µM
GI50 [21]: 6.22 µM
TGI [21]: > 100 µM
GI50 [22]: > 100 µM
TGI [22]: > 100 µM
GI50 [23]: 5.29 µM
TGI [23]: > 100 µM
GI50 [24]: > 100 µM
TGI [24]: > 100 µM
GI50 [25]: 0.698 µM
TGI [25]: 7.36 µM
GI50 [26]: > 100 µM
TGI [26]: > 100 µM
GI50 [27]: > 100 µM
TGI [27]: > 100 µM
GI50 [28]: 2.57 µM
TGI [28]: > 100 µM
GI50 [29]: 5.27 µM
TGI [29]: > 100 µM
GI50 [30]: > 100 µM
TGI [30]: > 100 µM
GI50 [31]: > 100 µM
TGI [31]: > 100 µM
GI50 [32]: 2.42 µM
TGI [32]: > 100 µM
